Measured values published in patent US20260109707A1, “HETEROBIFUNCTIONAL COMPOUNDS AND METHODS OF TREATING DISEASE” (Halda Therapeutics OpCo. Inc., priority 2022, published 2026).
Read-outs that look alike come from different tables or passages of the source.

Tests used:
[1] = tested on: T-Rex 293 cell line SC3 cells lacking increased expression of androgen receptor protein; experiment: Cellular growth inhibition assay, T-Rex 293 SC3 cells without doxycycline (CellTiter-Glo, 72 hours); format: cell-based; settings: T-Rex 293 cell line SC3 cells not exposed to doxycycline (lacking increased androgen receptor expression)
Procedure, shortened: (§1)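 Growth inhibition is measured in an inducible AR-expressing T-Rex 293 clone, SC3, cultured with or without 10 ng/mL doxycycline in hormone-depleted medium. Test compounds are applied for 72 hours. GI50 values derive from CellTiter-Glo 2.0 signal fitted by four-parameter regression.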

VCaP cells = experiment: Cellular growth inhibition assay for VCaP cells (CellTiter-Glo, 72 hours); format: cell-based, human
Procedure, shortened: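 Luminescent viability signal after 72 h of compound exposure gave GI50 values by four-parameter nonlinear regression. Compounds were added in 0.5% DMSO to cells plated 24 h earlier at 5000/well in DMEM containing 10% FBS.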

[2] = tested on: T-Rex 293 cell line SC3 cells having increased expression of androgen receptor protein due to exposure to doxycycline; experiment: Cellular growth inhibition assay, T-Rex 293 SC3 cells with doxycycline (CellTiter-Glo, 72 hours); format: cell-based; settings: T-Rex 293 SC3 cells with increased androgen receptor expression due to doxycycline (10 ng/mL)
Procedure, shortened: as §1

Row | Structure (SMILES) | GI50 [1] | GI50 (VCaP cells) | GI50 [2] | GI50 ([1]; 72 h) | GI50 (VCaP cells; Homo sapiens, VCaP, 72 h) | GI50 ([2]; 72 h)
1 | Cc1sc2c(c1C)C(c1ccc(OCC3CCC4(C3)CN(c3ccc(C(=O)N[C@H]5CC[C@H](Oc6ccc(C#N)c(Cl)c6)CC5)nn3)CCO4)cc1)=N[C@@H](C)c1nnc(C)n1-2 (stereo partly drawn) [I-638] | < 500 nM | 1500 to 3000 nM | < 500 nM |  |  | 
2 | Cc1sc2c(c1C)C(c1ccc(OCC3CCC4(C3)CN(c3ccc(C(=O)N[C@H]5CC[C@H](Oc6ccc(C#N)c(Cl)c6)CC5)nn3)CCO4)cc1)=N[C@@H](C)c1nnc(C)n1-2 (stereo partly drawn) [I-639] | > 3000 nM | > 3000 nM | < 500 nM |  |  | 
3 | Cc1sc2c(c1C)C(c1ccc(CC3CN(C(C)(C)C4CCN(c5ccc(C(=O)N[C@H]6CC[C@H](Oc7ccc(C#N)c(Cl)c7)CC6)nn5)CC4)C3)cc1)=N[C@@H](C)c1nnc(C)n1-2 [I-640] |  |  |  | > 3000 nM | < 500 nM | < 500 nM
4 | Cc1sc2c(c1C)C(c1ccc(N3CCC4(CCN(c5ccc(C(=O)N[C@H]6CC[C@H](Oc7ccc(C#N)c(Cl)c7)CC6)nn5)CC4)C3)cc1)=N[C@@H](C)c1nnc(C)n1-2 [I-641] |  |  |  | < 500 nM | < 500 nM | < 500 nM
5 | Cc1sc2c(c1C)C(c1ccc(CC3CC4(CCCN(c5ccc(C(=O)N[C@H]6CC[C@H](Oc7ccc(C#N)c(Cl)c7)CC6)nn5)C4)C3)cn1)N[C@@H](Cc1ncco1)c1nnc(C)n1-2 (stereo partly drawn) [I-642] |  |  |  | > 3000 nM | > 3000 nM | < 500 nM
6 | Cc1sc2c(c1C)C(c1ccc(CCC3CC4(CCCN(c5ccc(C(=O)N[C@H]6CC[C@H](Oc7ccc(C#N)c(Cl)c7)CC6)nn5)C4)C3)cn1)N[C@@H](Cc1ncco1)c1nnc(C)n1-2 (stereo partly drawn) [I-643] |  |  |  | > 3000 nM | < 500 nM | < 500 nM
7 | Cc1sc2c(c1C)C(c1ccc(CCC3CC4(CCCN(c5ccc(C(=O)N[C@H]6CC[C@H](Oc7ccc(C#N)c(Cl)c7)CC6)nn5)C4)C3)cn1)N[C@@H](Cc1ncco1)c1nnc(C)n1-2 (stereo partly drawn) [I-644] | > 3000 nM | < 500 nM | < 500 nM |  |  | 
8 | Cc1sc2c(c1C)C(c1ccc(C#CC3CC(Cc4ccc(C(=O)N[C@H]5CC[C@H](Oc6ccc(C#N)c(Cl)c6)CC5)nn4)C3)cc1)=N[C@@H](Cc1ncco1)c1nnc(C)n1-2 (stereo partly drawn) [I-645] | > 3000 nM |  |  |  | < 500 nM | < 500 nM
9 | Cc1sc2c(c1C)C(c1ccc(C#CC3CC(Cc4ccc(C(=O)N[C@H]5CC[C@H](Oc6ccc(C#N)c(Cl)c6)CC5)nn4)C3)cc1)=N[C@@H](Cc1ncco1)c1nnc(C)n1-2 (stereo partly drawn) [I-646] | < 500 nM | < 500 nM | < 500 nM |  |  | 
10 | Cc1sc2c(c1C)C(c1cccc(OCCC3CCN(c4ccc(C(=O)N[C@H]5CC[C@H](Oc6ccc(C#N)c(Cl)c6)CC5)nn4)CC3)c1)=N[C@@H](C)c1nnc(C)n1-2 [I-647] |  |  |  | > 3000 nM | < 500 nM | < 500 nM
11 | Cc1sc2c(c1C)C(c1cccc(OC3CC4(CCN(c5ccc(C(=O)N[C@H]6CC[C@H](Oc7ccc(C#N)c(Cl)c7)CC6)nn5)CC4)C3)c1)=N[C@@H](C)c1nnc(C)n1-2 [I-648] |  |  |  | 500 to 1500 nM | < 500 nM | < 500 nM
12 | Cc1sc2c(c1C)C(c1ccccc1OC1CCN(c3ccc(C(=O)N[C@H]4CC[C@H](Oc5ccc(C#N)c(Cl)c5)CC4)nn3)CC1)=N[C@@H](C)c1nnc(C)n1-2 [I-649] |  |  |  | > 3000 nM | < 500 nM | > 3000 nM
13 | Cc1sc2c(c1C)C(c1ccccc1OCC1CCN(c3ccc(C(=O)N[C@H]4CC[C@H](Oc5ccc(C#N)c(Cl)c5)CC4)nn3)CC1)=N[C@@H](C)c1nnc(C)n1-2 [I-650] | > 3000 nM | 1500 to 3000 nM | < 500 nM |  |  | 
14 | Cc1sc2c(c1C)C(c1ccccc1OC1CC3(CCN(c4ccc(C(=O)N[C@H]5CC[C@H](Oc6ccc(C#N)c(Cl)c6)CC5)nn4)CC3)C1)=N[C@@H](C)c1nnc(C)n1-2 [I-651] |  |  |  | > 3000 nM | < 500 nM | > 3000 nM
15 | CC[C@@H]1N=C(c2ccc(C3CCC4(CCCN(c5ccc(C(=O)N[C@H]6CC[C@H](Oc7ccc(C#N)c(Cl)c7)CC6)nn5)C4)CC3)cc2)c2c(sc(C)c2C)-n2c(C)nnc21 (stereo partly drawn) [I-652] |  |  |  | > 3000 nM | < 500 nM | < 500 nM
16 | CC[C@@H]1N=C(c2ccc(C3CCC4(CCCN(c5ccc(C(=O)N[C@H]6CC[C@H](Oc7ccc(C#N)c(Cl)c7)CC6)nn5)C4)CC3)cc2)c2c(sc(C)c2C)-n2c(C)nnc21 (stereo partly drawn) [I-653] | > 3000 nM | < 500 nM | < 500 nM |  |  | 

Row | Structure (SMILES) | GI50 [1] | GI50 (VCaP cells) | GI50 [2] | GI50 ([1]; 72 h) | GI50 (VCaP cells; Homo sapiens, VCaP, 72 h) | GI50 ([2]; 72 h)
17 | COC[C@@H]1N=C(c2ccc(C3CCC4(CCCN(c5ccc(C(=O)N[C@H]6CC[C@H](Oc7ccc(C#N)c(Cl)c7)CC6)nn5)C4)CC3)cc2)c2c(sc(C)c2C)-n2c(C)nnc21 (stereo partly drawn) [I-654] | > 3000 nM |  |  |  | < 500 nM | < 500 nM
18 | COC[C@@H]1N=C(c2ccc(C3CCC4(CCCN(c5ccc(C(=O)N[C@H]6CC[C@H](Oc7ccc(C#N)c(Cl)c7)CC6)nn5)C4)CC3)cc2)c2c(sc(C)c2C)-n2c(C)nnc21 (stereo partly drawn) [I-655] | < 500 nM | 500 to 1500 nM | < 500 nM |  |  | 
19 | COCC[C@@H]1N=C(c2ccc(C3CCC4(CCCN(c5ccc(C(=O)N[C@H]6CC[C@H](Oc7ccc(C#N)c(Cl)c7)CC6)nn5)C4)CC3)cc2)c2c(sc(C)c2C)-n2c(C)nnc21 (stereo partly drawn) [I-656] |  |  |  | > 3000 nM | < 500 nM | < 500 nM
20 | COCC[C@@H]1N=C(c2ccc(C3CCC4(CCCN(c5ccc(C(=O)N[C@H]6CC[C@H](Oc7ccc(C#N)c(Cl)c7)CC6)nn5)C4)CC3)cc2)c2c(sc(C)c2C)-n2c(C)nnc21 (stereo partly drawn) [I-657] | > 3000 nM | 500 to 1500 nM | < 500 nM |  |  | 
21 | COC[C@@H]1N=C(c2ccc(C3CCC4(CCN(c5ccc(C(=O)N[C@H]6CC[C@H](Oc7ccc(C#N)c(Cl)c7)CC6)nn5)CC4)C3)cc2)c2c(sc(C)c2C)-n2c(C)nnc21 (stereo partly drawn) [I-658] |  |  |  | < 500 nM | < 500 nM | < 500 nM
22 | COC[C@@H]1N=C(c2ccc(C3CCC4(CCN(c5ccc(C(=O)N[C@H]6CC[C@H](Oc7ccc(C#N)c(Cl)c7)CC6)nn5)CC4)C3)cc2)c2c(sc(C)c2C)-n2c(C)nnc21 (stereo partly drawn) [I-659] | < 500 nM | < 500 nM | < 500 nM |  |  | 
23 | COCC[C@@H]1N=C(c2ccc(CC3CC4(CCN(c5ccc(C(=O)N[C@H]6CC[C@H](Oc7ccc(C#N)c(Cl)c7)CC6)nn5)CC4)C3)cc2)c2c(sc(C)c2C)-n2c(C)nnc21 [I-660] |  |  |  | 500 to 1500 nM | < 500 nM | < 500 nM
24 | COCC[C@@H]1N=C(c2ccc(OC3CC4(CCCN(c5ccc(C(=O)N[C@H]6CC[C@H](Oc7ccc(C#N)c(Cl)c7)CC6)nn5)C4)C3)cc2)c2c(sc(C)c2C)-n2c(C)nnc21 (stereo partly drawn) [I-662] |  |  |  | 500 to 1500 nM | < 500 nM | < 500 nM
25 | COCC[C@@H]1N=C(c2ccc(OC3CC4(CCCN(c5ccc(C(=O)N[C@H]6CC[C@H](Oc7ccc(C#N)c(Cl)c7)CC6)nn5)C4)C3)cc2)c2c(sc(C)c2C)-n2c(C)nnc21 (stereo partly drawn) [I-663] | < 500 nM | < 500 nM | < 500 nM |  |  | 
26 | Cc1sc2c(c1C)C(c1ccc(N3C[C@@H]4CN(c5ccc(C(=O)N[C@H]6CC[C@H](Oc7ccc(C#N)c(Cl)c7)CC6)nn5)C[C@H]4C3)cc1)=NC1(CC1)c1nnc(C)n1-2 [I-664] |  |  |  | < 500 nM | < 500 nM | < 500 nM
27 | Cc1sc2c(c1C)C(c1ccc(CC3CCC4(CCCN(c5ccc(C(=O)N[C@H]6CC[C@H](Oc7ccc(C#N)c(Cl)c7)CC6)nn5)C4)C3)nc1)=N[C@@H](C)c1nnc(C)n1-2 (stereo partly drawn) [I-665] |  |  |  | > 3000 nM | < 500 nM | < 500 nM
28 | Cc1sc2c(c1C)C(c1ccc(CC3CCC4(CCCN(c5ccc(C(=O)N[C@H]6CC[C@H](Oc7ccc(C#N)c(Cl)c7)CC6)nn5)C4)C3)nc1)=N[C@@H](C)c1nnc(C)n1-2 (stereo partly drawn) [I-666] | > 3000 nM | < 500 nM | < 500 nM |  |  | 
29 | Cc1sc2c(c1C)C(c1ccc(OCC3CCC4(C3)CN(c3ccc(C(=O)N[C@H]5CC[C@H](Oc6ccc(C#N)c(Cl)c6)CC5)nn3)CCO4)cc1)=N[C@@H](C)c1nnc(C)n1-2 (stereo partly drawn) [I-667] | < 500 nM | < 500 nM |  |  |  | < 500 nM
30 | Cc1sc2c(c1C)C(c1ccc(OCC3CCC4(C3)CN(c3ccc(C(=O)N[C@H]5CC[C@H](Oc6ccc(C#N)c(Cl)c6)CC5)nn3)CCO4)cc1)=N[C@@H](C)c1nnc(C)n1-2 (stereo partly drawn) [I-668] | < 500 nM | < 500 nM | < 500 nM |  |  | 
31 | Cc1sc2c(c1C)C(c1ccc(CCCC3CCCN(c4ccc(C(=O)N[C@H]5CC[C@H](Oc6ccc(C#N)c(Cl)c6)CC5)nn4)CC3)cc1)=N[C@@H](C)c1nnc(C)n1-2 (stereo partly drawn) [I-669] | > 3000 nM |  |  |  | < 500 nM | < 500 nM
